Source: patent publication US8633315B2, “Substituted hydroxyethyl amine compounds as beta-secretase modulators and methods of use” (Amgen Inc., priority 2007, dated 2014)

Legend:
[1] = molecular target: BACE1 (Homo sapiens, UniProt P56817); assay: In vitro enzymatic BACE FRET (fluorescence resonance energy transfer) assay; format: biochemical
Description: In Vitro Enzymatic BACE FRET (Fluorescence Resonance Energy Transfer) Assay (Enzyme Assay Data in Table 1)
The assay buffer used in this screen is 0.05 M acetate, pH 4.2, 10% DMSO final, 100 uM genapol (which is a nonionic detergent, below its Critical Micelle Concentration). […] The assay is effectively started by the addition of FRET substrate (50 nM) and the combination is incubated for one hour. The FRET assay is terminated with by addition of Tris buffer, which raises the pH to neutrality, and the fluorescence is determined. The FRET substrate is a peptide with commercially available fluorophore and quencher, on opposite sides of the BACE cleavage site. Proteolytic cleavage of the FRET substrate releases quenching of fluorescence (excitation […] and emission […]).

[2] = tested on: Cells stably expressing Amyloid Precursor Protein (APP); assay: In vitro BACE cell-based assay (HEK cell assay): Aβ40 in conditioned medium by sandwich ELISA; conditions: Aβ40 in conditioned medium after 24 h incubation
Description: In Vitro BACE Cell-Based Assay:
The cell-based assay measures inhibition or reduction of Aβ40 in conditioned medium of test compound treated cells expressing amyloid precursor protein.
Cells stably expressing Amyloid Precursor Protein (APP) were plated at a density of 40K cells/well in 96 well plates (Costar). The cells were cultivated for 24 hours at 37° C. and 5% CO2 in DMEM supplemented with 10% FBS. The test compounds were then added to cells in 10-point dose response concentrations with the starting concentration being either 100 μM or 10 μM. The compounds were diluted from stock solutions in DMSO and the final DMSO concentration of the test compounds on cells was 0.1%. After 24 h of incubation with the test compounds the supernatant conditioned media was collected and the Aβ 40 levels were determined using a sandwich ELISA. The IC50 of the compound was calculated from the percent of control or percent inhibition of Aβ 40 as a function of the concentration of the test compound.
The sandwich ELISA to detect Aβ 40 was performed in 96 well microtiter plates, which were pre-treated with goat anti-rabbit IgG (Pierce). The capture and detecting antibody pair that were used to detect Aβ 40 from cell supernatants were affinity purified pAb40 (Biosource) and biotinylated 6E10 (Signet Labs Inc.), respectively. The optimal concentration for the pAb40 antibody was 3 μg/ml in Superblock/TBS (Pierce) that was supplemented with 0.05% Tween 20 (Sigma). Optimal concentration for the detection antibody 6E10-biotinylated was 0.5 μg/ml in Superblock/TBS (Pierce) that had been supplemented with 2% normal goat serum and 2% normal mouse serum.
Cellular supernatants were incubated with the capture antibody for 3 h at 4° C., followed by 3 wash steps in TBS-tween (0.05%). The detecting antibody incubation was for 2 h at 4° C., again followed by the wash steps as described previously. The final readout of the ELISA is Time-Resolved Fluorescence (counts per minute) using Delfia reagents Streptavidin-Europium and Enhancement solutions (Perkin Elmer) and the Victor 2 multilabel counter (Perkin Elmer).
Of the compounds tested, in-the cell-based assay, data for each of Examples 33-156 is provided in Table 1 and Examples 208-246 are provided in Table 4.

Chain of BACE1 (P56817 46-501, species assumed): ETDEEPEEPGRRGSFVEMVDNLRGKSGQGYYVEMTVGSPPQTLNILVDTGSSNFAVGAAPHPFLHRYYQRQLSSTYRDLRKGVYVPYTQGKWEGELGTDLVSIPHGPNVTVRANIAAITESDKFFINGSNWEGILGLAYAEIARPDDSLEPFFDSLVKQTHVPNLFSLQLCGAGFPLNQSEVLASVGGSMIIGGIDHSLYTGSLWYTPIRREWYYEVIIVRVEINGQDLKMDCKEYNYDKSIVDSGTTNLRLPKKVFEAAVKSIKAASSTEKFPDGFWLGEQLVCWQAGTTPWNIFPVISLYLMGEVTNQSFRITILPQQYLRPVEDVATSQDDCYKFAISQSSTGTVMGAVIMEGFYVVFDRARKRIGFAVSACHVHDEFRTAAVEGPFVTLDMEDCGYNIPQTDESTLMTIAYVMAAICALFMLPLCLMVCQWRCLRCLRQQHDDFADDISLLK

IC50 [1] [µM]	IC50 ([2]; Homo sapiens, HEK293, 24 h) [µM]	IC50 [2] [µM]	SMILES
0.382	0.331	–	C=CC[C@H](NC(=O)[C@@H]1CC1(F)F)[C@H](O)CN[C@H]1CC2(CCC2)Oc2ncc(CC(C)(C)C)cc21 [Example 140, (1S)-N-((1S)-1-((1R)-2-(((4′S)-6′-(2,2-dimethylpropyl)-3′,4′-dihydrospiro[cyclobutane-1,2′-pyrano[2,3-b]pyridin]-4′-yl)amino)-1-hydroxyethyl)-3-buten-1-yl)-2,2-difluorocyclopropanecarboxamide]
0.084	0.09	–	C=CC[C@H](NC(=O)COC)[C@H](O)CN[C@H]1CC2(CCC2)Oc2c1cc(CC(C)(C)C)nc2N1CCCC1 [Example 49, N-((1S)-1-((1R)-2-(((4′S)-6′-(2,2-dimethylpropyl)-8′-(1-pyrrolidinyl)-3′,4′-dihydrospiro[cyclobutane-1,2′-pyrano[2,3-c]pyridin]-4′-yl)amino)-1-hydroxyethyl)-3-buten-1-yl)-2-(methyloxy)acetamide]
0.155	0.121	–	C=CC[C@H](NC(=O)c1cccc(F)c1F)[C@H](O)CN[C@H]1CC2(CCC2)Oc2ncc(CC(C)(C)C)cc21 [Example 69, N-((1S)-1-((1R)-2-(((4′S)-6′-(2,2-dimethylpropyl)-3′,4′-dihydrospiro[cyclobutane-1,2′-pyrano[2,3-b]pyridin]-4′-yl)amino)-1-hydroxyethyl)-3-buten-1-yl)-2,3-difluorobenzamide]
0.137	1.3	–	C=CC[C@H](NC(=O)c1csc(F)c1)[C@H](O)CN[C@H]1CC2(CCC2)Oc2ncc(CC(C)(C)C)cc21 [Example 135, N-((1S)-1-((1R)-2-(((4′S)-6′-(2,2-dimethylpropyl)-3′,4′-dihydrospiro[cyclobutane-1,2′-pyrano[2,3-b]pyridin]-4′-yl)amino)-1-hydroxyethyl)-3-buten-1-yl)-5-fluoro-3-thiophenecarboxamide]
0.018	0.133	–	C#CCC(NC(=O)C1CCC(=O)O1)C(O)CNC1CC2(CCC2)Oc2ncc(CC(C)(C)C)cc21 [Example 37, (2R)-N-((1S)-1-((1R)-2-(((1s,3S,4′S)-6′-(2,2-dimethylpropyl)-3′,4′-dihydrospiro[cyclobutane-1,2′-pyrano[2,3-b]pyridin]-4′-yl)amino)-1-hydroxyethyl)-3-butyn-1-yl)-5-oxotetrahydro-2-furancarboxamide]
0.905	6.34	–	C=CC[C@H](NC(C)=O)[C@H](O)CN[C@H]1CC2(CCC2)Oc2c1cc(CC(C)(C)C)nc2N(C)C [Example 45, N-((1S)-1-((1R)-2-(((4′S)-8′-(dimethylamino)-6′-(2,2-dimethylpropyl)-3′,4′-dihydrospiro[cyclobutane-1,2′-pyrano[2,3-c]pyridin]-4′-yl)amino)-1-hydroxyethyl)-3-buten-1-yl)acetamide]
0.373	0.183	–	C=CC[C@H](NC(C)=O)[C@H](O)CN[C@H]1CC2(CCC2)Oc2c1cc(CC(C)(C)C)nc2N1CCCC1 [Example 46, N-((1S)-1-((1R)-2-(((4′S)-6′-(2,2-dimethylpropyl)-8′-(1-pyrrolidinyl)-3′,4′-dihydrospiro[cyclobutane-1,2′-pyrano[2,3-c]pyridin]-4′-yl)amino)-1-hydroxyethyl)-3-buten-1-yl)acetamide]
0.087	0.361	–	C=CC[C@H](NC(=O)c1ccc(F)c(F)c1)[C@H](O)CN[C@H]1CC2(CCC2)Oc2ncc(CC(C)(C)C)cc21 [Example 60, N-((1S)-1-((1R)-2-(((4′S)-6′-(2,2-dimethylpropyl)-3′,4′-dihydrospiro[cyclobutane-1,2′-pyrano[2,3-b]pyridin]-4′-yl)amino)-1-hydroxyethyl)-3-buten-1-yl)-3,4-difluorobenzamide]
0.063	0.212	–	C=CC[C@H](NC(C)=O)[C@H](O)CN[C@H]1C[C@]2(CC[C@@H]2O)Oc2ncc(CC(C)(C)C)cc21 [Example 51, N-((1S)-1-((1R)-2-(((1S,2S,4′S)-6′-(2,2-dimethylpropyl)-2-hydroxy-3′,4′-dihydrospiro[cyclobutane-1,2′-pyrano[2,3-b]pyridin]-4′-yl)amino)-1-hydroxyethyl)-3-buten-1-yl)acetamide]
0.125	0.392	–	C=CC[C@H](NC(=O)c1cncc(F)c1)[C@H](O)CN[C@H]1CC2(CCC2)Oc2ncc(CC(C)(C)C)cc21 [Example 56, N-((1S)-1-((1R)-2-(((4′S)-6′-(2,2-dimethylpropyl)-3′,4′-dihydrospiro[cyclobutane-1,2′-pyrano[2,3-b]pyridin]-4′-yl)amino)-1-hydroxyethyl)-3-buten-1-yl)-5-fluoro-3-pyridinecarboxamide]
0.179	0.071	–	C=CC[C@H](NC(=O)c1ccc(F)nc1)[C@H](O)CN[C@H]1CC2(CCC2)Oc2ncc(CC(C)(C)C)cc21 [Example 66, N-((1S)-1-((1R)-2-(((4′S)-6′-(2,2-dimethylpropyl)-3′,4′-dihydrospiro[cyclobutane-1,2′-pyrano[2,3-b]pyridin]-4′-yl)amino)-1-hydroxyethyl)-3-buten-1-yl)-6-fluoro-3-pyridinecarboxamide]
0.075	0.707	–	C=CC[C@H](NC(=O)c1ccc2c(c1)OCO2)[C@H](O)CN[C@H]1CC2(CCC2)Oc2ncc(CC(C)(C)C)cc21 [Example 102, N-((1S)-1-((1R)-2-(((4′S)-6′-(2,2-dimethylpropyl)-3′,4′-dihydrospiro[cyclobutane-1,2′-pyrano[2,3-b]pyridin]-4′-yl)amino)-1-hydroxyethyl)-3-buten-1-yl)-1,3-benzodioxole-5-carboxamide]
0.012	0.004	–	C=CCC(NC(=O)C1CN(C(=O)N2CCCCC2)CCO1)C(O)CNC1CC2(CCC2)Oc2ncc(CC(C)(C)C)cc21 (stereo not shown) [Example 152]
0.083	0.167	–	CCC[C@H](NC(C)=O)[C@H](O)CN[C@H]1CC2(CCC2)Oc2ncc(CC(C)(C)C)cc21 [Example 43, N-((1S)-1-((1R)-2-(((4′S)-6′-(2,2-dimethylpropyl)-3′,4′-dihydrospiro[cyclobutane-1,2′-pyrano[2,3-b]pyridin]-4′-yl)amino)-1-hydroxyethyl)butyl)acetamide]
0.104	0.624	–	C=CC[C@H](NC(=O)COC)[C@H](O)CN[C@H]1CC2(CCC2)Oc2ccc(CC(C)C)cc21 [Example 35, N-((1S)-1-((1R)-1-hydroxy-2-(((4S)-6-(2-methylpropyl)-3,4-dihydrospiro[chromene-2,1′-cyclobutan]-4-yl)amino)ethyl)-3-buten-1-yl)-2-(methyloxy)acetamide]
0.073	0.154	–	C=CC[C@H](NC(=O)C(F)(F)F)[C@H](O)CN[C@H]1CC2(CCC2)Oc2ncc(CC(C)(C)C)cc21 [Example 94, N-((1S)-1-((1R)-2-(((4′S)-6′-(2,2-dimethylpropyl)-3′,4′-dihydrospiro[cyclobutane-1,2′-pyrano[2,3-b]pyridin]-4′-yl)amino)-1-hydroxyethyl)-3-buten-1-yl)-2,2,2-trifluoroacetamide]
0.028	0.033	–	C=CCC(NC(=O)C1CN(C(=O)C(C)C)CCO1)C(O)CNC1CC2(CCC2)Oc2ncc(CC(C)(C)C)cc21 (stereo not shown) [Example 156]
0.199	0.122	–	C=CC[C@H](NC(C)=O)[C@H](O)CN[C@H]1CC2(CCC2)Oc2ncc(C[C@@H](C)C(F)(F)F)cc21 [Example 125, N-((1S)-1-((1R)-1-hydroxy-2-(((4′S)-6′-((2R)-3,3,3-trifluoro-2-methylpropyl)-3′,4′-dihydrospiro[cyclobutane-1,2′-pyrano[2,3-b]pyridin]-4′-yl)amino)ethyl)-3-buten-1-yl)acetamide]
–	–	0.095	CC=CC[C@H](NC(=O)[C@H]1CCC(=O)O1)[C@H](O)CN[C@H]1C[C@]2(C[C@H](F)C2)Oc2ncc(CC(C)(C)C)cc21 [Example 108, (2R)-N-((1S)-1-((1R)-2-(((1s,3S,4′S)-6′-(2,2-dimethylpropyl)-3-fluoro-3′,4′-dihydrospiro[cyclobutane-1,2′-pyrano[2,3-b]pyridin]-4′-yl)amino)-1-hydroxyethyl)-3-penten-1-yl)-5-oxotetrahydro-2-furancarboxamide]
